Data reported in patent US11590232B2, “Bioconjugates of neuropeptides derivatives” (CENTRE NATIONAL DE LA RECHERCHE SCIENTIFIQUE, priority 2018, dated 2023).

Tests used:
[1] = tested on: central or peripheral opioid receptors; test: Opioid receptor blockade with naloxone or naloxone methiodide before agonist, Hargreaves test; format: in vivo, Sprague-Dawley rats; conditions: for reduction of AUC value by NaI pre-treatment compared with agonist alone: NaI (naloxone, brain-permeant) 0.5 mg/kg s.c. 15 min before agonist; for reduction of AUC value by NaI-M pre-treatment compared with agonist alone: NaI-M (naloxone methiodide, brain-impermeant) 0.5 mg/kg s.c. 15 min before agonist
[2] = 37° C.
Method: In the case of LENK-SQ-Diox NPs, diluted serum (30% in 5% dextrose solution) was used for the release study. […] To quantify the residual LENK-SQ bioconjugate and the released LENK, the resulting supernatants (150 μL) were evaporated to dryness at 40° C. under nitrogen flow, and then solubilized in 150 μL of Milli-Q water.

[3] = Dynamic light scattering (DLS) measurement of LENK-SQ NPs: size, zeta potential; format: physicochemical; conditions: in 0.1 mM KCl
Method: The mean particle size, polydispersity index (PDI) and zeta potential were primarily evaluated by DLS (Nano ZS, Malvern; 173° scattering angle at 25° C.).
The measurements were performed in triplicate following appropriate dilution of the nanoparticles in water (DLS) or in 0.1 mM KCl (zeta potential).

[4] = tested on: thermal hyperalgesia in λ-carrageenan-treated rats; test: Hargreaves test (thermal nociceptive test) in λ-carrageenan-induced inflammatory pain; format: in vivo, Sprague-Dawley rats
[5] = In vivo imaging biodistribution (IVIS Lumina) in mice with λ-carrageenan-induced paw inflammation; parameters: species or system Swiss mice; conditions: i.v. injection, λ-carrageenan administered mice
Method: In parallel, control non-inflamed shaved mice (injected with 20 μL saline into the right hind paw, instead of λ-carrageenan), received also injection of fluorescent LENK-SQ NPs. The biodistribution of the NPs was recorded at 0.5, 2, 4, 6 and 24 h after excitation at 640 nm and emission in the 695-775 nm filter respectively, using IVIS Lumina LT series III system (Caliper, Life science). During imaging, the mice were kept on the imaging stage under anesthesia with 2% isoflurane gas in oxygen flow (1 L/min) and were imaged in ventral position. Images and measures of fluorescence signals were acquired and analyzed with Living Imaging®. To measure photon radiance, regions of interest (ROI, threshold of 35%) were selected on the paw of the mice and average radiant efficiency values were used for quantification. Threshold of ROI for the inflamed paw was then pasted on the non-inflamed paw to compare the radiance with the same region.

[6] = diluted mouse serum (30% in 5% dextrose solution)

Compound: CC(C)=CCC/C(C)=C/CC/C(C)=C/CC/C=C(\C)CC/C=C(\C)CCC(=O)OCOC(=O)C(CC(C)C)NC(=O)C(Cc1ccccc1)NC(=O)CNC(=O)CNC(=O)C(N)Cc1ccc(O)cc1 (centres unmarked) [LENK-SQ-Diox, Leu-Enkephalin-Squalene Bioconjugate with Dioxycarbonyl Spacer]
- reduction of AUC value by NaI pre-treatment compared with agonist alone [1]: 66%
- reduction of AUC value by NaI-M pre-treatment compared with agonist alone [1]: 81%
- release of the free LENK peptide [2, 6]: progressively released the free LENK peptide
- time till which the concentration of the bioconjugate decreased gradually [2, 6]: 7 h
- zeta potential (sign of charge) of NPs [3]: net positive charge

Compound: CN1CC[C@]23c4c5ccc(O)c4O[C@H]2[C@@H](O)C=C[C@H]3[C@H]1C5 [morphine]
- paw withdrawal latency (PWL) ([4]; 10 min post-injection, morphine 1 mg/kg, 3 h after λ-carrageenan, rats): 12.87 ± 1.38 s
- time post-administration at which no longer significant anti-hyperalgesic effect was observed ([4]; morphine 1 mg/kg, rats): 100 min
- maximal PWL values compared with basal PWL of control naïve rats ([4]; λ-carrageenan-treated rats): twice as high as those found in control naïve rats

Compound: CCCCCCCCCCCCCCCCCCN1/C(=C/C=C/C=C/C2=[N+](CCCCCCCCCCCCCCCCCC)c3ccccc3C2(C)C)C(C)(C)c2ccccc21.[O-][Cl+3]([O-])([O-])[O-] [DiD solution]
- accumulation of fluorescence in the inflamed paw [5]: no significant accumulation of fluorescence

Compound: CC(C)=CCC/C(C)=C/CC/C(C)=C/CC/C=C(\C)CC/C=C(\C)CCC(=O)NC(Cc1ccc(O)cc1)C(=O)NCC(=O)NCC(=O)NC(Cc1ccccc1)C(=O)NC(CC(C)C)C(=O)O (centres unmarked) [LENK-SQ-Am, Leu-enkephalin-squalene Bioconjugate with Amide Spacer]
- reduction of AUC value by NaI pre-treatment compared with agonist alone [1]: 73%
- reduction of AUC value by NaI-M pre-treatment compared with agonist alone [1]: 96%
- time stable in serum without significant decrease of bioconjugate ([2]; mouse serum): ≥ 48 h
- zeta potential (sign of charge) of NPs [3]: negative

Compound: CC(C)=CCC/C(C)=C/CC/C(C)=C/CC/C=C(\C)CC/C=C(\C)CCCOC(=O)COCC(=O)NC(Cc1ccc(O)cc1)C(=O)NCC(=O)NCC(=O)NC(Cc1ccccc1)C(=O)NC(CC(C)C)C(=O)O (centres unmarked) [LENK-SQ-Dig, Leu-enkephalin-squalene Bioconjugate with diglycolic Spacer]
- release of free LENK peptide ([2]; mouse serum): no presence of free peptide was detected
- time of complete disappearance of the bioconjugate ([2]; mouse serum): 2 h
- zeta potential (sign of charge) of NPs [3]: negative
- time of decline of PWL down to baseline ([4]; 20 mg/kg i.v., rats): 220 min
